Patent US20100093744A1, “THIOGLUCOSE SPIROKETAL DERIVATIVE AND USE THEREOF AS THERAPEUTIC AGENT FOR DIABETES” (Chugai Seiyaku Kabushiki Kaisha, priority 2007, published 2010)

Molecular target: T1, human SGLT2 (Homo sapiens, UniProt P31639)
T1 construct: expressed in transfected cells
T1 sequence (P31639 1-672): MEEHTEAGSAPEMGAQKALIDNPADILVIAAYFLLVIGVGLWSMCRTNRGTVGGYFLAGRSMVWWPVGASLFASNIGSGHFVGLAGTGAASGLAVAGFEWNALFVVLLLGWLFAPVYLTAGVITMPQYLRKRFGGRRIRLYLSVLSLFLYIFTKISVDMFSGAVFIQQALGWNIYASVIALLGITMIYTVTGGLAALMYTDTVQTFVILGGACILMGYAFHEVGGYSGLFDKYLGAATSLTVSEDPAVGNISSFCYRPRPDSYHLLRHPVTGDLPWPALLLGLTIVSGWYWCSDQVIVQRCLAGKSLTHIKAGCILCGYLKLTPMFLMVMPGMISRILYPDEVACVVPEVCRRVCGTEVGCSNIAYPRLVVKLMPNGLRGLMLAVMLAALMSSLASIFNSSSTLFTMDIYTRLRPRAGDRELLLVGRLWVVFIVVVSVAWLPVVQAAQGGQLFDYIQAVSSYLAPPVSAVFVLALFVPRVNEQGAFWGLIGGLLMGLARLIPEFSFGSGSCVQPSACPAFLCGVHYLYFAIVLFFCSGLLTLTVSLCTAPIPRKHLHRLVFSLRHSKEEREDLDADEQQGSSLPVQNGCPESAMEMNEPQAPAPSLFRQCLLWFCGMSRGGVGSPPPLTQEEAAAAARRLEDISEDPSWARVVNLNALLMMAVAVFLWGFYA
Experiment: Inhibition of methyl-α-D-glucopyranoside uptake in CHO cells stably expressing human SGLT2
Format: cell-based
Conditions: methyl-α-D-(U-14C)glucopyranoside uptake, 37° C., 45 minutes, read-out: ICH value for the inhibition of SGLT2
Procedure: Assay for Evaluating Inhibition of Activity of Human Na^+-Glucose Cotransporter (SGLT1 and SGLT2)
Human SGLT2 cDNA was amplified by PCR with a cDNA library derived from human kidney (Clontech) as a template, synthetic DNA primers, and KOD+ DNA Polymerase. The amplified cDNA was inserted into pcRII-Topo vector by using a Topo TA Cloning Dual Promoter kit. E. coli competent cells (TPO10) were transformed with the plasmid vector, and then cultured in LB medium containing ampicillin (50 mg/L) to grow ampicillin-resistant clones. The plasmid vector containing human SGLT2 cDNA was purified from the clone in a standard manner. Human SGLT2 cDNA added restriction enzyme recognition sites (Xho I at 5′-end, Hind III at 3′-end) was amplified by PCR with the plasmid vector as a template, synthetic DNA primers containing an additional restriction enzyme recognition site, and KOD+ DNA Polymerase. This amplified cDNA was digested with Xho I and Hind III, and the resulting fragment was ligated into expression vector pcDNA3.1(−) digested with Xho I and Hind III by using a Rapid DNA Ligation kit. E. coli competent cells (DH5α) were transformed with the ligated expression vector and grown in ampicillin-containing LB medium. Human SGLT2 expression vector was purified from the ampicillin-resistant clone in a standard manner. […]

IC50: 12 nM
SMILES: CCc1ccc(Cc2ccc3c(c2)[C@]2(OC3)S[C@H](CO)[C@@H](O)[C@H](O)[C@H]2O)cc1 [Example 1, (1S,3′R,4′S,5′S,6′R)-6-[(4-ethylphenyl)methyl]-3′,4′,5′,6′-tetrahydro-6′-(hydroxymethyl)-spiro[isobenzofuran-1(3H),2′-[2H]thiopyran]-3′,4′,5′-triol]
